Measurements: the NIST ThermoML archive (doi:10.1016/j.fluid.2006.12.001)

Test: xn = mol fraction of the nth substance listed
Conditions: 303.2 K; 101 kPa; Liquid; Taylor dispersion method; x1 = 0

Structure (SMILES): CCCCn1cc[n+](C)c1.F[P-](F)(F)(F)(F)F [1-butyl-3-methylimidazolium hexafluorophosphate] + O
- binary diffusion coefficient: 1.25e-09 m2/s

Structure (SMILES): CCCCn1cc[n+](C)c1.F[B-](F)(F)F [1-butyl-3-methylimidazolium tetrafluoroborate] + O
- binary diffusion coefficient: 1.3e-09 m2/s

Structure (SMILES): CCn1cc[n+](C)c1.F[P-](F)(F)(F)(F)F [1-ethyl-3-methylimidazolium hexafluorophosphate] + O
- binary diffusion coefficient: 1.41e-09 m2/s

Structure (SMILES): CCn1cc[n+](C)c1.F[B-](F)(F)F [1-ethyl-3-methylimidazolium tetrafluoroborate] + O
- binary diffusion coefficient: 1.52e-09 m2/s

Structure (SMILES): CCCCCCn1cc[n+](C)c1.F[P-](F)(F)(F)(F)F [1-hexyl-3-methylimidazolium hexafluorophosphate] + O
- binary diffusion coefficient: 1.11e-09 m2/s

Structure (SMILES): CCCCCCn1cc[n+](C)c1.F[B-](F)(F)F [1-hexyl-3-methylimidazolium tetrafluoroborate] + O
- binary diffusion coefficient: 1.24e-09 m2/s

Structure (SMILES): CCCCCCCC[n+]1ccn(C)c1.F[B-](F)(F)F [1-methyl-3-octylimidazolium tetrafluoroborate] + O
- binary diffusion coefficient: 1.14e-09 m2/s

Structure (SMILES): CCCCCCCC[n+]1ccn(C)c1.F[P-](F)(F)(F)(F)F [1-octyl-3-methylimidazolium hexafluorophosphate] + O
- binary diffusion coefficient: 1.06e-09 m2/s
